The values below come from patent US10117944B2, “Targeted therapeutics” (Madrigal Pharmaceuticals, Inc., priority 2014, dated 2018).

Where “and” joins values, the source holds several entries; their conditions need not be identical. Identical values can stand only once. Like-named read-outs stand apart in the source and are kept apart here. Some results are limits rather than exact numbers.

Series [1] in a line: Stability of SDC-TRAPs in mouse plasma. The note with it: 37° C. It counts as in vitro ADME. Here is the method:
SDC-TRAPs were incubated in mouse plasma for 1 h at 37° C. and assayed for integrity at 0, 0.25, 0.5 and 1 h to assess the stability of the SDC-TRAP, e.g., as compared to the effector and targeting compounds. Compound stability was determined using […].

In another series the test system is HER2. Kind of series: HER2 degradation assay with BT-474 cell line. It counts as cell-based, human. The following applies: BT-474 cells, overnight incubation.
A short description of series [2]: Tissue distribution of ganetespib in female CD-1 nu/nu mice bearing RERF human NSCLC xenografts. The following applies: IV 50 mg/kg; for concentration at 5 min / concentration at 24 h / concentration at 6 h: female, CD-1 nu/nu, mouse. In kind it is in vivo. The source says:
To confirm the distribution of ganetespib in blood, livers, kidneys, brains, hearts, lungs and tumors after IV administration of ganetespib to female CD-1 nu/nu mice bearing RERF human NSCLC xenografts, and to examine metabolic profiles of ganetespib in plasma, red blood cells, and above tissues.
Test Articles: ganetespib
Animals: female CD-1 nu/nu mice bearing RERF human NSCLC xenografts (N=3/group)
Formulation: 10% DMSO, 18% Cremophor RH40, 3.6% dextrose solution (DRD)
Bleeding time points: 5 min, 6, 24 hr
Collected tissues: blood (plasma and red blood cells (RBC)), liver, kidneys, brain, heart, lung, tumor
Protein precipitation: 50 μL of 10 times diluted plasma or RBC+150 μL ACN (10 mM NH4OAc), vortexed and centrifuged at 10000 rpm for 8 min; 150 μL supernatant+150 μL water (10 mM NH4OAc)
Protein precipitation: 100 μL homogenized tissue (1:3 tissue: PBS buffer)+100 μL ACN (10 mM NH4OAc), vortexed and centrifuged at 10000 rpm for 8 min

Protocol for HER2: BT-474 cells (human breast cancer cell line ATCC HTB-20) were obtained from ATCC and seeded into 12-well tissue culture plates at 0.2×10^6/1.8 mL/well. The cells were incubated for more than 6 hours at 37° C. in DMEM+10% FBS, +1% P/S, +1.5 g/L sodium bicarbonate. […] The DMSO final concentration was 0.2%. Cells were incubated overnight at 37° C. in 5% CO2.
Media was decanted from the plate, cells were washed 1× in PBS. 400 μL trypsin (EDTA) per well was added, and the cells were incubated for 2 to 3 minutes. Cells were collected into FACS tubes containing 1 ml culture medium to neutralize the trypsin and were centrifuged for 5 minutes at 1200 rpm. Supernatant was decanted and the cells were resuspended in 5 μL FITC (anti HER2/nu)/200 μL staining buffer (1×PBS+1% FBS+0.05% Sodium Azide)/tube. Controls were 5 μL IgG isotype control and staining buffer only. Tubes were incubated for 30 minutes in the dark at room temperature. 1 mL staining buffer was added to each tube and the tubes were centrifuged for 6 minutes at 1200 rpm. The supernatant was decanted and 300 μL staining buffer was added to each tube, which was stored at 4° C. for FACS (cytometer) analysis. The cytometer readout was normalized and the potency of each compound was evaluated with IC50 calculated with XLfit™ software.

Regarding `CC(C)C[C@H](NC(=O)[C@H](Cc1ccccc1)NC(=O)c1cnccn1)B1OC(C)(C)C(C)(c2ccc(C(=O)N3CCC(CCn4ccc5cc(-n6c(O)nnc6-c6cc(C(C)C)c(O)cc6O)ccc54)CC3)cc2)O1` (stereo partly drawn) [SDC-TRAP-0237, N-((2S)-1-(((1R)-1-(4-(4-(4-(2-(5-(3-(2,4-dihydroxy-5-isopropylphenyl)-5-hydroxy-4H-1,2,4-triazol-4-yl)-1H-indol-1-yl)ethyl)piperidine-1-carbonyl)phenyl)-4,5,5-trimethyl-1,3,2-dioxaborolan-2-yl)-3-methylbutyl)amino)-1-oxo-3-phenylpropan-2-yl)pyrazine-2-carboxamide], in series [1], the “% Remaining (1 h)” value was found to be 84.2%. The IC50 in the series on HER2 is above 5 µM.
In the case of `CCNC(=O)c1nnc(-c2cc(C(C)C)c(O)cc2O)n1-c1ccc(C(=O)NCCCCCCC2(C)OB([C@H](CC(C)C)NC(=O)[C@H](Cc3ccccc3)NC(=O)c3cnccn3)OC2(C)C)cc1` (stereo partly drawn) [SDC-TRAP-0247, N-((2S)-1-(((1R)-1-(4-(6-(4-(3-(2,4-dihydroxy-5-isopropylphenyl)-5-(ethylcarbamoyl)-4H-1,2,4-triazol-4-yl)benzamido)hexyl)-4,5,5-trimethyl-1,3,2-dioxaborolan-2-yl)-3-methylbutyl)amino)-1-oxo-3-phenylpropan-2-yl)pyrazine-2-carboxamide], in series [1], the “% Remaining (1 h)” value is 11.8%. Moreover, the IC50 with HER2 came to 0.036 µM.
Take `CCNC(=O)c1nnc(-c2cc(C(C)C)c(O)cc2O)n1-c1ccc(C(=O)N2CCC3(CC2)OB([C@H](CC(C)C)NC(=O)[C@H](Cc2ccccc2)NC(=O)c2cnccn2)OC3(C)C)cc1` [SDC-TRAP-0251, N—((S)-1-(((R)-1-(8-(4-(3-(2,4-dihydroxy-5-isopropylphenyl)-5-(ethylcarbamoyl)-4H-1,2,4-triazol-4-yl)benzoyl)-4,4-dimethyl-1,3-dioxa-8-aza-2-boraspiro[4.5]decan-2-yl)-3-methylbutyl)amino)-1-oxo-3-phenylpropan-2-yl)pyrazine-2-carboxamide]: the “% Remaining (1 h)” value in series [1] was 13.4%. For the same compound, the IC50 in the series on HER2 was above 5 µM.
The matching figures for `CC(C)C[C@H](NC(=O)[C@H](Cc1ccccc1)NC(=O)c1cnccn1)B1OC(C)(C)C(C)(c2ccc(C(=O)N3CCN(c4ccc(-n5c(O)nnc5-c5cc(C(C)C)c(O)cc5O)cc4)CC3)cc2)O1` (stereo partly drawn) [SDC-TRAP-0238, N-((2S)-1-(((1R)-1-(4-(4-(4-(4-(3-(2,4-dihydroxy-5-isopropylphenyl)-5-hydroxy-4H-1,2,4-triazol-4-yl)phenyl)piperazine-1-carbonyl)phenyl)-4,5,5-trimethyl-1,3,2-dioxaborolan-2-yl)-3-methylbutyl)amino)-1-oxo-3-phenylpropan-2-yl)pyrazine-2-carboxamide]: 24.0% and above 5 µM.
Turning to `CCNC(=O)c1nnc(-c2cc(C(C)C)c(O)cc2O)n1-c1ccc(C(=O)N(C)CC[C@]23OB([C@H](CC(C)C)NC(=O)[C@H](Cc4ccccc4)NC(=O)c4cnccn4)O[C@H]2C[C@H]2C[C@@H]3C2(C)C)cc1` [SDC-TRAP-0244, N—((S)-1-(((R)-1-((3aR,4R,6R,7aS)-3a-(2-(4-(3-(2,4-dihydroxy-5-isopropylphenyl)-5-(ethylcarbamoyl)-4H-1,2,4-triazol-4-yl)-N-methylbenzamido)ethyl)-5,5-dimethylhexahydro-4,6-methanobenzo[d][1,3,2]dioxaborol-2-yl)-3-methylbutyl)amino)-1-oxo-3-phenylpropan-2-yl)pyrazine-2-carboxamide], the “% Remaining (1 h)” value in series [1] came to 62.9%. In the series on HER2, this compound came in with an IC50 of 0.1 µM.
`CC(C)C[C@H](NC(=O)[C@H](Cc1ccccc1)NC(=O)c1cnccn1)B1OC(C)(C)C(C)(c2ccc(C(=O)N3CCC(COc4ccc(-n5c(O)nnc5-c5cc(C(C)C)c(O)cc5O)cc4)CC3)cc2)O1` (stereo partly drawn) [SDC-TRAP-0242, N-((2S)-1-(((1R)-1-(4-(4-(4-((4-(3-(2,4-dihydroxy-5-isopropylphenyl)-5-hydroxy-4H-1,2,4-triazol-4-yl)phenoxy)methyl)piperidine-1-carbonyl)phenyl)-4,5,5-trimethyl-1,3,2-dioxaborolan-2-yl)-3-methylbutyl)amino)-1-oxo-3-phenylpropan-2-yl)pyrazine-2-carboxamide] had an IC50 in the series with HER2 of 0.407 µM.
In the case of `CC(C)c1cc(-c2n[nH]c(=O)n2-c2ccc3c(ccn3C)c2)c(O)cc1O` [ganetespib], the “Mean concentration in plasma relative to that in RBC” value in series [2] (5 min) is reported as “about 10 times”. In series [2] (5 min, tumor), this compound returned a Concentration in tumor of 2350 nM. Moreover, the Concentration in plasma result in series [2] (24 hr, plasma) is “<LLOQ”. For the same compound, the concentration at 5 min in series [2] (red blood cells, 5 min, RBC, read-out: Concentration in RBC) was 6000 ng/mL and 16.5 µM; in series [2] (5 min, brain, read-out: Concentration in brain) it was 530 nM and 190 ng/g; in series [2] (5 min, heart, read-out: Concentration in heart) it was 36.2 µM and 13200 ng/g; in series [2] (5 min, kidneys, read-out: Concentration in kidneys), 57.8 µM and 21100 ng/g; in series [2] (5 min, liver, read-out: Concentration in liver) it was 46.3 µM and 16900 ng/g; in series [2] (5 min, lung, read-out: Concentration in lung), 9240 ng/g and 25.4 µM. In addition, the concentration at 5 min in series [2] (5 min, plasma, read-out: Concentration in plasma) is 160 µM and 58400 ng/mL; in series [2] (5 min, tumor, read-out: Concentration in tumor) it was 860 ng/g and 2.35 µM. The concentration at 24 h in series [2] (red blood cells, 24 hr, RBC, read-out: Concentration in RBC) is 3 ng/mL and 7 nM; in series [2] (24 hr, brain, read-out: Concentration in brain), 40 ng/g and 120 nM; in series [2] (24 hr, heart, read-out: Concentration in heart) it was 0 ng/g and 0 nM; in series [2] (24 hr, kidneys, read-out: Concentration in kidneys), 10 ng/g and 20 nM; in series [2] (24 hr, liver, read-out: Concentration in liver), 5 ng/g and 10 nM; in series [2] (24 hr, lung, read-out: Concentration in lung), 0 ng/g and 5 nM. Besides, the concentration at 24 h in series [2] (24 hr, plasma, read-out: Plasma concentration (below the lower limit of quantitation)) is below 2.5 nM; in series [2] (24 hr, tumor, read-out: Concentration in tumor), 850 nM and 310 ng/g. In addition, the concentration at 6 h was 70 ng/g and 180 nM in series [2] (brain, read-out: Concentration in brain); 50 ng/g and 130 nM in series [2] (heart, read-out: Concentration in heart); 60 ng/g and 150 nM in series [2] (kidneys, read-out: Concentration in kidneys); 140 ng/g and 390 nM in series [2] (liver, read-out: Concentration in liver); 50 ng/g and 140 nM in series [2] (lung, read-out: Concentration in lung); 120 nM and 40 ng/mL in series [2] (plasma, read-out: Concentration in plasma). For the same compound, the concentration at 6 h in series [2] (tumor, read-out: Concentration in tumor) was 290 ng/g and 800 nM.
On to `CC(C)C[C@H](NC(=O)[C@H](Cc1ccccc1)NC(=O)c1cnccn1)B1O[C@H]2C[C@H]3C[C@H](C3(C)C)[C@@]2(CC(=O)N2CCC(CCn3ccc4cc(-n5c(O)nnc5-c5cc(C(C)C)c(O)cc5O)ccc43)CC2)O1` [SDC-TRAP-0245, N—((S)-1-(((R)-1-((3aR,4R,6R,7aS)-3a-(2-(4-(2-(5-(3-(2,4-dihydroxy-5-isopropylphenyl)-5-hydroxy-4H-1,2,4-triazol-4-yl)-1H-indol-1-yl)ethyl)piperidin-1-yl)-2-oxoethyl)-5,5-dimethylhexahydro-4,6-methanobenzo[d][1,3,2]dioxaborol-2-yl)-3-methylbutyl)amino)-1-oxo-3-phenylpropan-2-yl)pyrazine-2-carboxamide], for which, in series [1], the “% Remaining (1 h)” value is given as 44.2%.
In the case of `CCNC(=O)c1nnc(-c2cc(C(C)C)c(O)cc2O)n1-c1ccc(CN2CCC(C(=O)N3CCC4(CC3)OB([C@H](CC(C)C)NC(=O)[C@H](Cc3ccccc3)NC(=O)c3cnccn3)OC4(C)C)CC2)cc1` [SDC-TRAP-0252, N—((S)-1-(((R)-1-(8-(1-(4-(3-(2,4-dihydroxy-5-isopropylphenyl)-5-(ethylcarbamoyl)-4H-1,2,4-triazol-4-yl)benzyl)piperidine-4-carbonyl)-4,4-dimethyl-1,3-dioxa-8-aza-2-boraspiro[4.5]decan-2-yl)-3-methylbutyl)amino)-1-oxo-3-phenylpropan-2-yl)pyrazine-2-carboxamide], the “% Remaining (1 h)” value in series [1] is 34%.

Broadly, the IC50 is the concentration that gives 50% inhibition.
